Results reported in BindingDB's records for doi:10.1021/jm00073a011 (Glaxo Group Research, 1993).

molecular target: T1, Dimer of Gag-Pol polyprotein [489-587] (Human immunodeficiency virus 1, UniProt P12497); assay: Protease Inhibition Assay; details: pH 6; 37 °C
T1 construct: 489-587
Description: IC50 values were obtained by assaying the enzyme against the synthetic substrate peptide […], which was tritiated at the proline residue, and then was coupled via its N-terminal lysine to an Affi-gel bead mixture. The assay was performed in 96-well microtiter filtration plates. The plates containing HIV protease and radiolabeled substrate beads were incubated with or without inhibitor. […] IC50 determinations were performed in duplicate at each concentration with mean values used for data analysis.

SMILES	IC50 [nM]
COC(=O)[C@@H](NC(=O)Cc1ccccc1)[C@@H]1N[C@@H](C(=O)NCCNC(=O)[C@@H]2N[C@@H]([C@H](NC(=O)Cc3ccccc3)C(=O)OC)SC2(C)C)C(C)(C)S1 [[2R-[2a(R*),4B ] ]-4,4-[1,2-Ethanediylbis[aminocarbonyl] ]-bis[5,5-dimethyl-a-[ (phenylacetyl)amino]-2-thiazolidineacetic acid, methyl ester]]	60
CC1(C)S[C@H]([C@H](NC(=O)Cc2ccccc2)C(N)=O)N[C@H]1C(=O)NCCNC(=O)[C@@H]1N[C@@H]([C@H](NC(=O)Cc2ccccc2)C(N)=O)SC1(C)C	3
CCNC(=O)[C@@H](NC(=O)Cc1ccccc1)[C@@H]1N[C@@H](C(=O)NCCNC(=O)[C@@H]2N[C@@H]([C@H](NC(=O)Cc3ccccc3)C(=O)NCC)SC2(C)C)C(C)(C)S1	4.8
